Laboratory results published in patent publication US12653899B2, “Multi-targeted, tunable, sustained delivery of payloads to charged avascular tissues” (Massachusetts Institute of Technology, priority 2019, dated 2026).

System: human knee cartilage explants
Assay: Aggrecan/sGAG biosynthesis rate (35S-sulfate incorporation) in human knee cartilage explants
Assay type: cell-based
Method: (§1) Cartilage was harvested from the knee joint of a donor. Cartilage explants were equilibrated in culture media for 2 days after harvest. […] These were cut down to 1 mm thickness and allowed to equilibrate for a further 2 days before the experiment was set up. Subsets of the experiment were terminated at 3 days and 7 days from the start of the experiment. Media changes were performed every 2 to 3 days.
For the 3-day termination experiment, chondrocyte biosynthesis rate (primarily aggrecan synthesis) was measured between days 0 and 3 of the experiment using a 35S-sulfate radiolabel. For the 7-day termination experiment, this measurement was done between days 5 and 7. Statistics: 1-way ANOVA with post-hoc Tukey's HSD test.
as §1, with “for 3” for “for 2”, “further 3” for “further 2”
Cartilage explants that were equilibrated in culture medium post-harvest were transferred to ultra-low attachment cell culture plates (Corning) for dose response experiments. All experiments were carried out in low glucose, serum free medium (same composition as equilibration medium). Previous studies studying the effects of IGF-1 on cartilage explants have used doses ranging from 10 ng/ml to 300 ng/ml. Based on these, 300 ng/ml (equivalent to 39.2 nM) of free recombinant human IGF-1 (PeproTech, Rocky Hill, NJ) was used as the positive control.
Since each fusion protein had one IGF-1 domain, equivalent doses (39.2 nM) of these were tested. In addition to this, 500 nM, 1 μM and 2 μM doses of fusion proteins were also tested. In all cases, only a single dose of the fusion proteins was added at the start of the experiment, and media changes were carried out without fusion proteins once every 2 to 3 days thereafter. In contrast, continuous doses of free IGF-1 were used for the positive control. An untreated control group was also included in the experiments. Experiments were terminated at 3-day, 7-day and 15-day time points. Outcome measures included the biosynthesis rate of sulfated glycosaminoglycans (sGAG), explant metabolic rate, sGAG loss to the culture medium and the explant sGAG content at the end of the experiment.
The metabolic rate of cartilage explants was measured using the Alamar Blue assay (ThermoFisher). Cartilage explants were incubated for 3 hours in a 1× solution of Alamar Blue dissolved in culture medium. At the end of the incubation period, the absorbance of the medium at 570 nm and 600 nm was measured using a microplate reader (Synergy H1 Hybrid Multi-Mode Microplate Reader, BioTek). These readings were used to calculate the percentage reduction of Alamar Blue, which is directly proportional to the explant metabolic rate. These values were first normalized by individual explant weights. Following this, the weight-normalized readings for the treatment groups were normalized by the weight-normalized mean value for the untreated controls. To measure the chondrocyte biosynthesis rate of sulfated glycosaminoglycans (sGAGs), cartilage explants were cultured in the presence of 10 μCi/mL 35S-sulfate radiolabel during the final two days of each experiment. Following this, the explants were washed with PBS with non-radioactive sulfate to wash out excess radiolabel, weighed and digested with proteinase K. A liquid scintillation counter (PerkinElmer) was used to measure the amount of radiolabel incorporated within the extracellular matrix of the tissues. Radiolabel incorporation data were normalized by the duration of exposure to radiolabel and by the wet weight of the explants (Li et al., Osteoarthritis and Cartilage 23(2):266-274 (2015)). […]

[1] = Experiment 1, knee, donor, single 500 nM dose, 3-day time point (days 0-3)
[2] = Experiment 2, knee, donor, single 2 μM dose, 3-day time point
[3] = Experiment 2, knee, single 1 μM dose, 7-day time point
[4] = Experiment 2, knee, single 2 μM dose, 7-day time point

## (+9GFP)-(GGGGS)4-(IGF-1): fusion protein of +9 GFP and human IGF-1 with flexible (GGGGS)4 linker, SEQ ID NO: 7
[1]
  aggrecan biosynthesis rate compared to the untreated control: significantly higher
Experiment 1, knee, donor, single 2 μM dose, 3-day time point
  aggrecan biosynthesis rate compared to the untreated control: not statistically significantly different
Experiment 1, knee, single 500 nM and 2 μM doses on Day 0
  mean aggrecan biosynthesis rate at Day 7 versus Day 3: the same as the rate on Day 3
Experiment 1, knee, single 500 nM dose, 7-day time point (days 5-7)
  aggrecan biosynthesis rate compared to the untreated control: not statistically significantly different
Experiment 1, knee, single 2 μM dose, 7-day time point
  aggrecan biosynthesis rate compared to the untreated control: not statistically significantly different
Experiment 2, knee, donor, single 500 nM dose, 3-day time point
  aggrecan biosynthesis rate compared to the untreated control: statistically significantly higher
[2]
  aggrecan biosynthesis rate compared to the untreated control: statistically significantly higher
[3]
  aggrecan biosynthesis rate compared to the untreated control: statistically significantly higher
[4]
  aggrecan biosynthesis rate compared to the untreated control: statistically significantly higher

## IGF-1: free recombinant human IGF-1 (PeproTech), pro-anabolic growth factor used as the positive control
Experiment 1, knee, donor, continuous 40 nM free IGF-1, 3-day time point
  aggrecan biosynthesis rate compared to the untreated control: significantly higher
Experiment 1, knee, continuous 40 nM free IGF-1, 7-day time point
  aggrecan biosynthesis rate compared to the untreated control: significantly higher
Experiment 2, knee, continuous 40 nM free IGF-1, 3-day time point
  aggrecan biosynthesis rate compared to the untreated control: statistically significantly higher
Experiment 2, knee, continuous 40 nM free IGF-1, 7-day time point
  aggrecan biosynthesis rate compared to the untreated control: statistically significantly higher

## (+9GFP)-(EAAAK)3-(IGF-1): fusion protein of +9 GFP and human IGF-1 with rigid (EAAAK)3 linker, SEQ ID NO: 8
[1]
  aggrecan biosynthesis rate compared to the untreated control: not statistically significantly different
Experiment 2, knee, donor, single 1 μM dose, 3-day time point
  aggrecan biosynthesis rate compared to the untreated control: statistically significantly higher
[2]
  aggrecan biosynthesis rate compared to the untreated control: statistically significantly higher
[3]
  aggrecan biosynthesis rate compared to the untreated control: statistically significantly higher
[4]
  aggrecan biosynthesis rate compared to the untreated control: statistically significantly higher
